Peptide text beside a SMILES is read from it.
Key:
[1] = Peptide integrity in human serum (resistance to proteases degradation); format: in vitro ADME; conditions: human serum 250 μl, 37 °C, different times, upon 6 h; MALDI-TOF MS; triplicate
Procedure: Figure 7 Stability of the new generated peptides in human serum. Peptides were incubated at 37 °C in human serum for different periods of time and their integrity (percentage of intact peptide) was analyzed by mass spectrometry (MS). Every measurement was performed in triplicate. Standard deviation is shown.
Peptides were incubated at 37 °C in 250 μl of human serum for several times. Samples were collected and peptide degradation stopped by freezing. Peptides were extracted from samples using the Proteo Miner Protein Enrichment System (Bio-Rad, California, USA). Percentage of intact peptide was estimated by mass spectrometry (MS) using MALDI-TOFF (Brucker Autoflex II, Massachusetts, USA) following their protocols. Measurements were performed in triplicates. MS data were analyzed using appropriated software (Clinprot tools, FLEx analysis, Brucker, Massachusetts, USA) as previously described[8],[9].

[2] = set-up: species or system C3H/S-strain mice; conditions: mouse, in vivo
Procedure: Figure 8 NLS18-TEAD has anti-tumoral effect on breast cancer xenograft models. (a) C3H/S-strain mice subcutaneously inoculated with 4 × 10^5 TN60-UNLP cells were intraperitoneally treated with 5 mg/kg of NLS18-TEAD or NLS23-TEAD 5 days per week for 4 weeks. Control mice received NaCl. Tumor growth was monitored each other day. The average tumor volume of each group (8 mice per group) is shown (p < 0.018). (b) The weight of the animals and the organs upon 30 days of treatment with the peptides NLS18-TEAD or NLS23-TEAD is shown. Control non-treated mice are also shown. p and t statistic values are shown. […]

Row | Stability to proteases degradation in human serum (percentage of intact peptide) [1] | Clinical symptoms in the injected animals compared to control non-treated animals [2] | SMILES
1 | constant stability | did not detected clinical symptoms | CC(C)C[C@H](NC(=O)[C@H](CCCCN)NC(=O)[C@H](CCCCN)NC(=O)[C@H](CCCCN)NC(=O)[C@H](CCCCN)NC(=O)[C@@H]1CCCN1C(=O)[C@H](Cc1c[nH]c2ccccc12)NC(=O)[C@H](CCCCN)NC(=O)[C@H](CCCCN)NC(=O)[C@H](Cc1c[nH]c2ccccc12)NC(=O)[C@H](CCCCN)NC(=O)[C@H](CCCCN)NC(=O)[C@H](CCCCN)NC(=O)[C@H](CCCCN)NC(=O)[C@H](CCCCN)NC(=O)[C@H](CCCNC(=N)N)NC(=O)[C@H](CCCCN)NC(=O)[C@@H](N)CCCNC(=N)N)C(=O)N[C@@H](CC(=O)O)C(=O)N[C@@H](CCCNC(=N)N)C(=O)N[C@@H](CC(C)C)C(=O)N[C@@H](CCC(N)=O)C(=O)N[C@@H](CC(C)C)C(=O)N[C@H](C(=O)N[C@@H](CCC(=O)O)C(=O)N[C@@H](Cc1ccccc1)C(=O)N[C@@H](CO)C(=O)N[C@@H](C)C(=O)N[C@@H](Cc1ccccc1)C(=O)N[C@H](C(=O)N[C@@H](CCC(=O)O)C(=O)N1CCC[C@H]1C(=O)N1CCC[C@H]1C(=O)N[C@@H](CC(=O)O)C(=O)N[C@@H](C)C(=O)N[C@H](C(=O)N[C@@H](CC(=O)O)C(=O)O)C(C)C)C(C)C)C(C)C [NLS18-TEAD] (H-RKRKKKKKWKKWPKKKKLDRLQLVEFSAFVEPPDAVD-OH)
2 |  | did not detected clinical symptoms | CC(C)C[C@H](NC(=O)[C@H](CCCCN)NC(=O)[C@H](CCCCN)NC(=O)[C@H](CCCCN)NC(=O)[C@H](CCCCN)NC(=O)[C@@H]1CCCN1C(=O)[C@H](CCCCN)NC(=O)[C@H](CCCCN)NC(=O)[C@H](CCCCN)NC(=O)[C@H](Cc1c[nH]c2ccccc12)NC(=O)[C@H](CCCCN)NC(=O)[C@H](CCCCN)NC(=O)[C@H](Cc1c[nH]c2ccccc12)NC(=O)[C@H](CCCCN)NC(=O)[C@H](CCCCN)NC(=O)[C@H](CCCCN)NC(=O)[C@H](CCCCN)NC(=O)[C@H](CCCCN)NC(=O)[C@H](CCCNC(=N)N)NC(=O)[C@H](CCCCN)NC(=O)[C@@H](N)CCCNC(=N)N)C(=O)N[C@@H](CC(=O)O)C(=O)N[C@@H](CCCNC(=N)N)C(=O)N[C@@H](CC(C)C)C(=O)N[C@@H](CCC(N)=O)C(=O)N[C@@H](CC(C)C)C(=O)N[C@H](C(=O)N[C@@H](CCC(=O)O)C(=O)N[C@@H](Cc1ccccc1)C(=O)N[C@@H](CO)C(=O)N[C@@H](C)C(=O)N[C@@H](Cc1ccccc1)C(=O)N[C@H](C(=O)N[C@@H](CCC(=O)O)C(=O)N1CCC[C@H]1C(=O)N1CCC[C@H]1C(=O)N[C@@H](CC(=O)O)C(=O)N[C@@H](C)C(=O)N[C@H](C(=O)N[C@@H](CC(=O)O)C(=O)O)C(C)C)C(C)C)C(C)C [NLS23-TEAD] (H-RKRKKKKKWKKWKKKPKKKKLDRLQLVEFSAFVEPPDAVD-OH)

From PMC6423280, “New Therapeutic Approach for Targeting Hippo Signalling Pathway” (Scientific Reports, 2019)
